Measurements taken from patent publication US9962405B2, “Antiviral gel combination” (YEDITEPE UNIVERSITESI, priority 2013, dated 2018).

Experiments:
[1] = tested on: Herpes Simplex Type 1 virus; assay: Antiviral activity on HSV type 1 in Vero cells, cell viability by MTS, viral inhibition calculated; format: cell-based; conditions: tested at 0.0005, 0.001 and 0.002%, HSV-1 dilutions 10^-2 to 10^-5
Protocol: Vero cells and Herpes Simplex Type 1 virus were used in order to observe the activity of the antiviral gel formulation; which is composed of a mixture of sodium pentaborate pentahydrate chlorhexidine and poloxamer; on Herpes Simplex Type 1 virus. Virus stock dilutions were prepared and used for the analysis. Five different concentrations were prepared from the main stock up to 10^−5 concentration and among these concentrations, the dilution of 10^−1 concentration was cancelled since no viable cell was observed. The other antiviral analyses were made at four different concentration values ranging from 10^−2 to 10^−5. Chlorhexidine was applied at three different concentrations: 0.0005-0.001-0.002%.

Vero cells = conditions: chlorhexidine at 0.002%; known from reference [12]; cited from earlier work
HSV-1 virus = conditions: in vitro, vero cells; cited from earlier work
Herpes simplex virus = conditions: topically applied on infected skin, animal studies; cited from earlier work

SMILES: [H]/N=C(\N/C(=N/[H])NCCCCCCNC(=N)NC(=N)Nc1ccc(Cl)cc1)Nc1ccc(Cl)cc1 [chlorhexidine]
- concentration of chlorhexidine alone at which the best antiviral activity was observed [1]: 0.002%
- cytotoxic effect (Vero cells): cytotoxic effect
- inhibition of viral replication of HSV-1 (HSV-1 virus): inhibits viral replication
- inhibition of virus proliferation and lesion formation (Herpes simplex virus): inhibits the virus from proliferating and forming lesions
